The format of data set [1] is physicochemical. As to the method:
All conditions and stock preparation procedures were identical to the conditions applied in the transporter assays (Table 74, Table 75 and Table 76). […] A follow-up assay was carried out at 7 concentrations in order to correct the nominal concentrations for the IC50 calculations (Table 78). Where NSB was observed (>20% loss) the assay concentrations were corrected according to the result of the respective NSB assay.
All conditions and stock preparation procedures were identical to the conditions applied in the transporter assays.
Samples (1.5×C0 or Total) were immediately taken after mixing to determine the total initial concentrations. The assay mixes were pre-incubated for 15 minutes at 37° C. and at 32° C. in case of BCRP and MDR1. After the pre-incubation step the assay mixes were 1.5-times diluted with (pre-warmed) transport buffer reaching the final nominal concentrations of the compounds in the VT assay and then were further incubated at 37° C. or 32° C. for BCRP and MDR1 and sampled in the end of incubation (timc).
The aqueous buffer was mixed, and samples (C0 or Total) were immediately taken for determining the total initial concentrations. The helper plate was pre-warmed for 15 minutes at 37° C. The pre-warmed aliquots of the aqueous buffers with the test articles (50 μL) were transferred from the helper plate into the wells of another 96-well plate (assay plate) and incubated for 30 minutes (pre-incubation) then removed from the wells. Thereafter the same wells of the assay plate were dosed again with other aliquots of the aqueous buffers with the test articles and were further incubated in the assay plate at 37° C. and finally sampled (tinc).

For data set [2], the system named is rat gut microbiota. The experiment in a line: Stability in rat gut microbiota. The note with it: rat fecal matter, 37° C., 0-120 min. Here is the method:
FIG. 7A. […] Gut microbiota from rat and human sources were extracted and purified in PBS at pH 6.0 or 7.4. A stock solution of 10 mM was prepared and a 10 μL aliquot was added to extracted microorganisms at 0 min. […] Values represent mean+SEM of n=3 separate experiments.
FIG. 7B. […] Gut microbiota from rat and human sources were extracted and purified in PBS at pH 6.0 or 7.4. A stock solution of 10 mM was prepared and a 10 μL aliquot was added to extracted microorganisms at 0 min. […] Values represent mean+SEM of n=3 separate experiments.
Rat fecal material was obtained and weighed. One capsule of the raw probiotics was crushed and weighed prior to use. The weighed samples were then solubilized in PBS at pH 6.0 and 7.4 to extract microorganisms. The samples were centrifuged at 18,000×g for 10 min. to remove particulates and the supernatant was used to evaluate test article stability. An aliquot (50 μL) of the test article stock solutions were added to the fecal extract (final concentration 0.5 mM) and allowed to incubate at 37° C. […] The collected sample was quenched in acetonitrile/0.1% formic acid mixture.

Data set [3] in a line: in vitro.
Where [4] appears, read: HBSS (pH 7.4) uptake buffer, 37° C., nominal 3.00 μM.
Where [5] appears, read: HBSS (pH 7.4) uptake buffer, 37° C., nominal 30.00 μM.
[6] abbreviates: KH (pH 8.0) uptake buffer, 37° C., nominal 3.00 μM.
[7] abbreviates: KH (pH 8.0) uptake buffer, 37° C., nominal 30.00 μM.
Where [8] appears, read: Transport buffer with sucrose (pH 7.4), BCRP and MDR1 VT, 32° C., nominal C0 5.00 μM.
Setting [9] is: Transport buffer with sucrose (pH 7.4), BCRP and MDR1 VT, 32° C., nominal C0 50.00 μM.

Like-named read-outs stand apart in the source and are kept apart here.

In the case of `OC1(c2ccc(Cl)cc2)c2ccccc2C2=NCCN21` (centres unmarked) [Compound A, 5-(4-chlorophenyl)-2,3-dihydroimidazo[1,2-b]isoindol-5-ol, reference compound], the “Non-specific binding (NSB)” value was “did not show any NSB” in data set [1] (BCRP, BSEP and MDR1 VT inhibition assay setup); “did not show any NSB” in data set [1] (HBSS (pH 7.4) and KH (pH 8.0) uptake assay buffers). Besides, the Concentration after incubation in data set [1] (setting [4]) came to 1.85 ± 0.13 µM; in data set [1] (setting [5]), 17.66 ± 0.35 µM; in data set [1] (setting [6]), 1.86 ± 0.06 µM; in data set [1] (setting [7]), 18.15 ± 0.42 µM. For the same compound, the “Loss of Compound A during the NSB assay” value was 14% in data set [1] (setting [4]); 15% in data set [1] (setting [5]); 20% in data set [1] (setting [6]); 18% in data set [1] (setting [7]); 3% in data set [1] (setting [8]); −2% in data set [1] (setting [9]). Moreover, the Measured dosing concentrations in data set [1] (setting [4]) amounted to 2.16 ± 0.05 µM; in data set [1] (setting [5]), 20.71 ± 0.67 µM; in data set [1] (setting [6]), 2.31 ± 0.11 µM; in data set [1] (setting [7]) it was 22.13 ± 0.61 µM. The “Concentration after incubation (tinc)” value in data set [1] (setting [8]) is 6.27 ± 0.69 µM; in data set [1] (setting [9]) it was 55.92 ± 2.44 µM. The “Measured dosing concentrations ([…] C0)” value in data set [1] (setting [8]) is 9.65 ± 1.52 µM; in data set [1] (setting [9]), 82.20 ± 3.76 µM.
For the compound `COCCOC1(c2ccc(Cl)cc2)c2ccccc2C2=NCCN21` (centres unmarked) [Compound I-4], the “% parent compound remaining” value was no less than 100% in data set [2] (pH 6, 0.5 mM) and no less than 100% in data set [2] (pH 7.4, 0.5 mM). The “Compound A formed (Aa/Ai)” value came to 0.57 in data set [3] (0 min); 0.66 in data set [3] (5 min); 0.58 in data set [3] (15 min); 0.52 in data set [3] (30 min); 0.42 in data set [3] (60 min). Besides, the “% Remaining” value in data set [3] (2.0 μM, 0 min) is on record as 100%; in data set [3] (2.0 μM, 5 min), 95.0%; in data set [3] (2.0 μM, 15 min), 99.6%; in data set [3] (2.0 μM, 30 min), 90.8%; in data set [3] (2.0 μM, 60 min) it was 83.6%. Further, the “Aa/Ai Mean (N = 2)” value in data set [3] (2.0 μM, 0 min) amounted to 3.25; in data set [3] (2.0 μM, 5 min) it was 3.08; in data set [3] (2.0 μM, 15 min), 3.23; in data set [3] (2.0 μM, 30 min), 2.95; in data set [3] (2.0 μM, 60 min) it was 2.72. This compound displayed a T1/2 in data set [3] (2.0 μM, 60 min incubation) greater than 3.12 h.

Source of the values: US20250108038A1 (priority 2023, published 2025).
